Data taken from ChEMBL document CHEMBL5465560, “Selectivity Literature for EUbOPEN Chemogenomic Library” (2024).
Each block holds one compound with its values, some of them ahead of it.

Key:
[1] = target: T1, Dual specificity tyrosine-phosphorylation-regulated kinase 2 (Homo sapiens) (UniProt Q92630); assay: Selectivity interaction (Ambit KINOMEscan and KiNATiv profiling in Jurkat cells) EUB0000090b DYRK2; assay type: cell-based; conditions: at 1 µM
T1 sequence (whole entry): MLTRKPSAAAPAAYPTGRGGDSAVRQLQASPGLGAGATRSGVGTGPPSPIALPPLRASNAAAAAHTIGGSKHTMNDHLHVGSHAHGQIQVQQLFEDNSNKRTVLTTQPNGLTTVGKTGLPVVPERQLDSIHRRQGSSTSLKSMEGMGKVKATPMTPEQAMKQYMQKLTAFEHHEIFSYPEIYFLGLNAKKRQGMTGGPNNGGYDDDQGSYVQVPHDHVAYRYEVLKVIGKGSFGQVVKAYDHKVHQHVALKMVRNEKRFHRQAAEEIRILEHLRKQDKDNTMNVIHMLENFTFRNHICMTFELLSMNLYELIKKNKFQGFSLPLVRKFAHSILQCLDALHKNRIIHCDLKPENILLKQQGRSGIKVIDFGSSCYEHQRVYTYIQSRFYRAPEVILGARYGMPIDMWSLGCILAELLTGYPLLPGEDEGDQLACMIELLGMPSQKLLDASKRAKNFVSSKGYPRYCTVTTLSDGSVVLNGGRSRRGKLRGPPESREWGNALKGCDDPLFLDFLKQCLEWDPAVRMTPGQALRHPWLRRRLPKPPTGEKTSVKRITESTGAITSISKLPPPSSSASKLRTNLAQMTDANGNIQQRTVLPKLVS

[2] = target: T2, Inhibitor of nuclear factor kappa-B kinase subunit epsilon (Homo sapiens) (UniProt Q14164); assay: Selectivity interaction (KinomeScan (DiscoverX)) EUB0001079a IKBKE; conditions: at 1 µM
T2 sequence (whole entry): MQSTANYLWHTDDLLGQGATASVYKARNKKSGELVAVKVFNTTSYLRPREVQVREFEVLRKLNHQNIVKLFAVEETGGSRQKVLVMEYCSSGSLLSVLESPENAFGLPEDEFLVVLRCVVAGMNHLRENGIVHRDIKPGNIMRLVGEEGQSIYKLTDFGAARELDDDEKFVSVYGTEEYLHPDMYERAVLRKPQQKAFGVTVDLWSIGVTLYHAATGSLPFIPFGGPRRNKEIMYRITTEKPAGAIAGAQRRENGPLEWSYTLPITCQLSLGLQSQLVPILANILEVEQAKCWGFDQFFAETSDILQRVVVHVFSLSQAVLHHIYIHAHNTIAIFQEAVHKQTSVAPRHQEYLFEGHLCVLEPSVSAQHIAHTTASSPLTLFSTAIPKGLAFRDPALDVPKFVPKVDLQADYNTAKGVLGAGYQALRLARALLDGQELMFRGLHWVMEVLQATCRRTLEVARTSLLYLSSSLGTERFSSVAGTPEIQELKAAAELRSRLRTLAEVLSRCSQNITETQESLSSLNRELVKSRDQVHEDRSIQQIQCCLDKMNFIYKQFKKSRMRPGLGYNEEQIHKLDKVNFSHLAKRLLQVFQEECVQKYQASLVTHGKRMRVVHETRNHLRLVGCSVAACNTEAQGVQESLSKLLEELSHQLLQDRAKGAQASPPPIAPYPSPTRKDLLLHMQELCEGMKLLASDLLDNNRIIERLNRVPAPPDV

[3] = target: Tyrosine-protein kinase ABL2 (Homo sapiens, UniProt P42684); assay: Selectivity interaction (KinomeScan (DiscoverX)) EUB0000595a ABL2; conditions: at 10 µM
Sequence of Tyrosine-protein kinase ABL2 (P42684 whole entry): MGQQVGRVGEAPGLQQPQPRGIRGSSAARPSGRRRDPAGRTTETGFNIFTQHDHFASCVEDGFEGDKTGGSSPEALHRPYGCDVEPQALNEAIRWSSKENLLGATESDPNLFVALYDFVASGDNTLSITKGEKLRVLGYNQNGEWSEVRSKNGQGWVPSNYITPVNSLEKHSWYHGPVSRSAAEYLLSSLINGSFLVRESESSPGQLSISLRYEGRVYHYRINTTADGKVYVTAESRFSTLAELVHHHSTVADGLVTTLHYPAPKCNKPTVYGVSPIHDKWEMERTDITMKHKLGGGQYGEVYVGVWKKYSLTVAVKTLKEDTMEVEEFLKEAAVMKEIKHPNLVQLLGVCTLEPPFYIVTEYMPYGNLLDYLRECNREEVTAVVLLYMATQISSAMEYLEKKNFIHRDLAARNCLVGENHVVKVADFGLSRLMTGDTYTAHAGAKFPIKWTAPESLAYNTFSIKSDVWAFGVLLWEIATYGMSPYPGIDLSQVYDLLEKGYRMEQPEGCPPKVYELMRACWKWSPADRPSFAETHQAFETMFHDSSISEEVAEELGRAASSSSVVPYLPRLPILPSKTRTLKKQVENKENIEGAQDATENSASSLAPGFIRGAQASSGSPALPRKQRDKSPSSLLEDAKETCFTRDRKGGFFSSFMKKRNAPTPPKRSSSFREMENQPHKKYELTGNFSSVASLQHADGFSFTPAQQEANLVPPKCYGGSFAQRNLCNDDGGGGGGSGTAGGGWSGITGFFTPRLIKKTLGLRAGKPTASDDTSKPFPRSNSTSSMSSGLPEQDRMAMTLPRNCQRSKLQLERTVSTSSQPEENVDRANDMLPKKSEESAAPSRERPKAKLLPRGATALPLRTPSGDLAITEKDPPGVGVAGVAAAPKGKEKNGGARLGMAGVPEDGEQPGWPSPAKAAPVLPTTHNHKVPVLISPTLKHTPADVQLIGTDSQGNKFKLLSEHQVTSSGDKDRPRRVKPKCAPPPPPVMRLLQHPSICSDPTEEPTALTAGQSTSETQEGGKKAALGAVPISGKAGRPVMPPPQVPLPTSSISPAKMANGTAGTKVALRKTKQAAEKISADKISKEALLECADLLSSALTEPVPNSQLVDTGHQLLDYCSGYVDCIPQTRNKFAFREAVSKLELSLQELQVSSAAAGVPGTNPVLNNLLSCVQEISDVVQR

[4] = target: T3, Dual specificity tyrosine-phosphorylation-regulated kinase 4 (Homo sapiens) (UniProt Q9NR20); assay: Selectivity interaction (Kinase panel (Invitrogen)) EUB0000639a DYRK4; conditions: at 200 nM
T3 sequence (whole entry): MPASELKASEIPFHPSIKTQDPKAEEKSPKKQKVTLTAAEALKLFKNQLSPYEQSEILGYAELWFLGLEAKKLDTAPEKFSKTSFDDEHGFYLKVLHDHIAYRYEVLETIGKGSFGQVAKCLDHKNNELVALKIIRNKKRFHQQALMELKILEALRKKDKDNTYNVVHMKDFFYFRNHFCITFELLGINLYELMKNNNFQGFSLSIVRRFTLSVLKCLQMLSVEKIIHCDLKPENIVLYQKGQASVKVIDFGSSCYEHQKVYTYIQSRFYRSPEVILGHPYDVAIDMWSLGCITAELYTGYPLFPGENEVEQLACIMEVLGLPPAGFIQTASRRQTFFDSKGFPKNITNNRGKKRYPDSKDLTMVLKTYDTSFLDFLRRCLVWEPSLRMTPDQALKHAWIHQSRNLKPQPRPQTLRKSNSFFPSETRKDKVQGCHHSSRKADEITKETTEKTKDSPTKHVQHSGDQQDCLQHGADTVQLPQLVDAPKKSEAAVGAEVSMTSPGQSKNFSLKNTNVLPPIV

[5] = target: Protein kinase C delta type (Homo sapiens) (UniProt Q05655); assay: Selectivity interaction (ActivX KiNativ screen (kinase selectivity in THP-1 cell lysates)) EUB0000639a PRKCD; assay type: subcellular; conditions: lysate
Sequence of Protein kinase C delta type (Homo sapiens) (Q05655 whole entry, looked up): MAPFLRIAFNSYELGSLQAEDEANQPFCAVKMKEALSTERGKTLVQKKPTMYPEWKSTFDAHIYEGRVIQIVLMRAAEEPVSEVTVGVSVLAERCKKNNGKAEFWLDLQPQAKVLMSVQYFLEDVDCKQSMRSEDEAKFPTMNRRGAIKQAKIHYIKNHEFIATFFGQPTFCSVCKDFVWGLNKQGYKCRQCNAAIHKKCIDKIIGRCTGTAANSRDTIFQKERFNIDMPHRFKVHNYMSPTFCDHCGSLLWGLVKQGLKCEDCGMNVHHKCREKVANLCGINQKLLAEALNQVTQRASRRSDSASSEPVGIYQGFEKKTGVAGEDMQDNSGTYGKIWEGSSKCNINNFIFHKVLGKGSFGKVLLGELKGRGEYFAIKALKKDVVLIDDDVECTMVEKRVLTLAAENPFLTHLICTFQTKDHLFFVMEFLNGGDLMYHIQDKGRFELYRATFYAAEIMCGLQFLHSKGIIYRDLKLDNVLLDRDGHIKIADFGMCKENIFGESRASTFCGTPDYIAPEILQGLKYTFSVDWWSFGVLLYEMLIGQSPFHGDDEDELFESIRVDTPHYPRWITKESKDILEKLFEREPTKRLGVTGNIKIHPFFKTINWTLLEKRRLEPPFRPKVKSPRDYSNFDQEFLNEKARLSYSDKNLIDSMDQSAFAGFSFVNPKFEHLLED

[6] = target: Tyrosine-protein kinase Fes/Fps (Homo sapiens) (UniProt P07332); assay: Selectivity interaction (ActivX KiNativ screen (kinase selectivity in THP-1 cell lysates)) EUB0000639a FES; assay type: subcellular; conditions: lysate
Sequence of Tyrosine-protein kinase Fes/Fps (Homo sapiens) (P07332 whole entry): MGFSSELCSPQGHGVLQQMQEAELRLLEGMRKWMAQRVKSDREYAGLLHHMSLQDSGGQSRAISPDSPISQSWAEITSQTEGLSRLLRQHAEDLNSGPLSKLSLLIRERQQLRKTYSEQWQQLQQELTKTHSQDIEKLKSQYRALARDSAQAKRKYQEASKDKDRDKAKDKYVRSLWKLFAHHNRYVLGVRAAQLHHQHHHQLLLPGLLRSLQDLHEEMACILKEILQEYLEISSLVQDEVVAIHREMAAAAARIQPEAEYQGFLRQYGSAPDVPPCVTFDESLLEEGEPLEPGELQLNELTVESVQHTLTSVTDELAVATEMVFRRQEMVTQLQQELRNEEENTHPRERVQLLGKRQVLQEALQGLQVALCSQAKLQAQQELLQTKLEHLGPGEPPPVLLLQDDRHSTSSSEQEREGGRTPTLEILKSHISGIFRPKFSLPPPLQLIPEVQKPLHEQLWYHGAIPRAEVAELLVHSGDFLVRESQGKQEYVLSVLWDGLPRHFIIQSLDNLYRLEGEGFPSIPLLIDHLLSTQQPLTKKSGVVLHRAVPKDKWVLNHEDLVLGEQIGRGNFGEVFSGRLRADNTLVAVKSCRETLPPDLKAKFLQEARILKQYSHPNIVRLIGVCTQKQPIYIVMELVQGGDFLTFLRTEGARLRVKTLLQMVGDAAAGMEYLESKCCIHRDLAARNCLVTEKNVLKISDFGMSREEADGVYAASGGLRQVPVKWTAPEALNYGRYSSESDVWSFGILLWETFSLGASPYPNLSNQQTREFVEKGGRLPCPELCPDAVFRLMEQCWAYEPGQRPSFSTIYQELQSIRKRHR

[7] = target: Serine/threonine-protein kinase WNK2 (Homo sapiens) (UniProt Q9Y3S1); assay: Selectivity interaction (Kinase panel (Invitrogen)) EUB0000639a WNK2; conditions: at 200 nM
[8] = test system: Tyrosine-protein kinase ABL1 (Homo sapiens), P00519 [H396P]; assay: Selectivity interaction (KinomeScan (DiscoverX)) EUB0000229b ABL1; conditions: at 1 µM
[9] = target: Dual specificity tyrosine-phosphorylation-regulated kinase 1B (Homo sapiens, UniProt Q9Y463); assay: Selectivity interaction (KinomeScan (DiscoverX)) EUB0000229b DYRK1B; conditions: at 10 µM
Sequence of Dual specificity tyrosine-phosphorylation-regulated kinase 1B (Q9Y463 whole entry, looked up): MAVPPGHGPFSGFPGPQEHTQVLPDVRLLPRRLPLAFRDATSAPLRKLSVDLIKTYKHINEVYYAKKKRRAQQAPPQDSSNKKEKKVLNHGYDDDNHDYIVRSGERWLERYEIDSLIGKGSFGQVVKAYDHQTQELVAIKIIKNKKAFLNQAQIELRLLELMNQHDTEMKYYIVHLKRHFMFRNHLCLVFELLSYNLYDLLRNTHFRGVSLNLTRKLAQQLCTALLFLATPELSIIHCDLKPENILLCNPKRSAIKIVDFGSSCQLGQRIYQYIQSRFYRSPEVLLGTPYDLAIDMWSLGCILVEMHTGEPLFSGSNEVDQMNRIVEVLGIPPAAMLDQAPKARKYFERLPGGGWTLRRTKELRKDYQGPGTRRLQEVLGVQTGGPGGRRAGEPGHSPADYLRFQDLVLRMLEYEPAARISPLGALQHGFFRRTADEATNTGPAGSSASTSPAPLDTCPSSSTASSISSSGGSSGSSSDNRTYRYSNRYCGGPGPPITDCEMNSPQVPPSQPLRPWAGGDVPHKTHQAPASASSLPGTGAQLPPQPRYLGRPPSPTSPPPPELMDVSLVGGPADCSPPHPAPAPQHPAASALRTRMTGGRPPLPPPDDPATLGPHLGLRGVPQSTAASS

[10] = target: Serine/threonine-protein kinase 24 (Homo sapiens) (UniProt Q9Y6E0); assay: Selectivity interaction (Kinase panel (Z-LYTE Assay)) EUB0001632a STK24; conditions: at 10 µM
Sequence of Serine/threonine-protein kinase 24 (Homo sapiens) (Q9Y6E0 whole entry, looked up): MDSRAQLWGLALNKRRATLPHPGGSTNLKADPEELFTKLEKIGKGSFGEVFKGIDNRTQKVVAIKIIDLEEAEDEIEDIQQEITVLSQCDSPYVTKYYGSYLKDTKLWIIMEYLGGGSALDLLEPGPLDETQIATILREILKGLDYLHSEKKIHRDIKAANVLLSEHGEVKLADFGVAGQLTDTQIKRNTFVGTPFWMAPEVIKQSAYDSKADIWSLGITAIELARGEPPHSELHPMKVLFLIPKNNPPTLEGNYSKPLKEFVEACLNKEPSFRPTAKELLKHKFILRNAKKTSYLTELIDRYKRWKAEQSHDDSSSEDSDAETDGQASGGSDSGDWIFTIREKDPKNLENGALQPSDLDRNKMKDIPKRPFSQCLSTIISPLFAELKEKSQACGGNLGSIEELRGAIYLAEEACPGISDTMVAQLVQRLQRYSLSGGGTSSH

Structure (SMILES): CN(C)C/C=C/C(=O)Nc1ccc(C(=O)N2CCCC(Nc3ncc(Cl)c(-c4c[nH]c5ccccc45)n3)C2)cc1 (stereo not drawn)
% of control [1]: 7.4%

Structure (SMILES): Nc1cnc(N2CCc3cc(S(=O)(=O)Nc4c(F)cc(Cl)cc4F)cc(N4CCCC4=O)c32)nc1 [TP-020n]
% of control [2]: 95%

Structure (SMILES): COCC(=O)NC/C=C/c1ccc2ncnc(Nc3ccc(Oc4ccc(C)nc4)c(C)c3)c2c1 [CP-724714]
% of control [3]: 100%

% of inhibition [4]: 5.52%
% of inhibition ([5]; at 0.01 µM): -1%
% of inhibition ([5]; at 0.04 µM): -2%
% of inhibition ([5]; at 0.2 µM): 1.3%
% of inhibition ([5]; at 1 µM): 7.2%
% of inhibition ([5]; at 5 µM): -13.1%
% of inhibition ([6]; at 0.01 µM): 0.3%
% of inhibition ([6]; at 0.04 µM): 2.2%
% of inhibition ([6]; at 0.2 µM): 5.7%
% of inhibition ([6]; at 1 µM): 0.6%
% of inhibition ([6]; at 5 µM): -23.7%
% of inhibition [7]: 3.33%
Structure (SMILES): CC[C@@H]1[C@H](F)C(=O)N[C@@H]1COc1nccc2cc(C(N)=O)c(OC)cc12 [ZIMLOVISERTIB]

Structure (SMILES): COc1cc(N(C)c2ccnc3ccc(C(F)(F)F)cc23)cc(OC)c1OC
% binding [8]: 78%
% binding [9]: 77%

% of control [10]: 1.16%
Structure (SMILES): Cn1cc(-n2cnc3c(NCc4nc5cc(Cl)c(Cl)cc5[nH]4)nc(N4CCOCC4)nc32)cn1
